BindingDB's records for doi:10.1124/dmd.112.048355 (Glaxosmithkline, 2013)

Target: Methionine aminopeptidase 2 (Homo sapiens) (UniProt P50579)
Assay: Inhibition of MetAP2 activity in HUVEC assessed as inhibition of cell proliferation by MTT assay

Sequence of Methionine aminopeptidase 2 (Homo sapiens) (P50579 whole entry, looked up): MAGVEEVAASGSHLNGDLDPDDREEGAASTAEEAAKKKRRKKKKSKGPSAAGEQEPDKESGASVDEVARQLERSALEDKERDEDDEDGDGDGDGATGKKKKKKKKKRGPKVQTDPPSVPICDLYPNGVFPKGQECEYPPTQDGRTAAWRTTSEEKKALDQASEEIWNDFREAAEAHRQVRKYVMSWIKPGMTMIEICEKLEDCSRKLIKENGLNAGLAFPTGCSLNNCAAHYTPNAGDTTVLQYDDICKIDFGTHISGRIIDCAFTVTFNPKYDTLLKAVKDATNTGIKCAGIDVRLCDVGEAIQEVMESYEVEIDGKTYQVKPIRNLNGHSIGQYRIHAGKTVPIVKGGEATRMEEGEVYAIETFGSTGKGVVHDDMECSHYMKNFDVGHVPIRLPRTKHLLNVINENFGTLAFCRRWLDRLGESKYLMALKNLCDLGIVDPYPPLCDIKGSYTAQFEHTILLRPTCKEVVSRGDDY

| EC50 [nM] | Structure (SMILES) |
| --- | --- |
| 12 | CO[C@@H]1[C@H](OC(=O)N[C@@H](C(N)=O)C(C)(C)O)CC[C@]2(CO2)[C@H]1[C@@]1(C)O[C@@H]1C[C@@H]1OC1(C)C |
| 8.8 | CO[C@@H]1[C@H](OC(=O)N[C@@H](C(N)=O)C(C)(C)O)CC[C@]2(CO2)[C@H]1[C@@]1(C)O[C@@H]1C[C@H]1OC1(C)C |
| 7.1 | CO[C@@H]1[C@H](OC(=O)N[C@@H](C(N)=O)C(C)C)CC[C@]2(CO2)[C@H]1[C@@]1(C)O[C@@H]1C/C=C(\C)CO |
| 6.5 | CO[C@@H]1[C@H](OC(=O)N[C@@H](C(N)=O)C(C)C)CC[C@]2(CO2)[C@H]1[C@@]1(C)O[C@@H]1C[C@@H]1OC1(C)C |
| 1.3 | CO[C@@H]1[C@H](OC(=O)N[C@@H](C(N)=O)C(C)C)CC[C@]2(CO2)[C@H]1[C@@]1(C)O[C@@H]1C[C@H]1OC1(C)C |
| 0.3 | CO[C@@H]1[C@H](OC(=O)N[C@@H](C(N)=O)C(C)(C)O)CC[C@]2(CO2)[C@H]1[C@@]1(C)O[C@@H]1CC=C(C)C |
| 0.095 | CO[C@@H]1[C@H](OC(=O)N[C@@H](C(N)=O)C(C)C)CC[C@]2(CO2)[C@H]1[C@@]1(C)O[C@@H]1CC=C(C)C |
